Experimental data taken from patent publication US20260283149A1, “DEVELOPMENT AND APPLICATION OF SYNTHETIC INHIBITORS OF PHOTOSYNTHESIS” (University of Florida Research Foundation, Incorporated, priority 2023, published 2026).

Legend:
[1] = system: Synechocystis sp. PCC6803 cells; test: Growth inhibition of Synechocystis sp. PCC 6803 in liquid BG-11 medium; type: cell-based; conditions: for growth inhibition of Synechocystis sp. PCC6803 cells: liquid BG-11 medium with glucose, growth monitored at 700 nm; for inhibitory activity on growth of Synechocystis sp. PCC6803 cells (overall grade): tested at 10 and 25 microM
Experimental: (§1) FIG. 11. Growth inhibition of Arabidopsis and Synechocystis by duroquinone, the unprenylated structural analogue of methyl-plastoquinone-9. (A) Structure of duroquinone. (B) Seven-day-old Arabidopsis plants (Col-0) grown on MS medium containing 1% sucrose (w/v) and 0, 10, 25, 50, or 100 μM duroquinone in 12-hour days (110 μE m^−2 s^−1) at 22° C. (C) Growth curve of Synechocystis sp. PCC 6803 at 30° C. in liquid BG-11 medium containing glucose, and with or without duroquinone. Data are means of three biological replicates±SE. Asterisks indicate significant differences (0 μM vs. 10 μM duroquinone) as determined by Fisher's test (p<α=0.05) from an analysis of variance.
FIG. 13. Growth inhibition of Synechocystis sp. PCC 6803 by structural analogues of methyl-plastoquinone-9. Synechocystis sp. PCC6803 cells were grown in liquid BG-11 medium containing […] (80 μE m^−2 s^−1; 24-hour days; 30° C.). Cell growth was monitored spectrophotometrically at 700 nm.
FIG. 15. Growth curve of Synechocystis treated with analogues grown photomixotrophically and photoautotrophically. Wild-type Synechocystis was grown in BG-11 and either with 5 mM glucose for photomixotrophic or w/o for photoautotrophic with treatment of either 0, 10 or 25 μM of the corresponding methylplastoquinone analog w/ 0.095% EtOH final and grown at a continuous light intensity of 50μ photons m^−2s^−1 at 30° C. with shaking 125 rpm. Data are means of 2 biological replicates ±SD.
Several analogues of Methylplastoquinone (FIG. 14) were tested for their ability to act as herbicides. Synechocystis were grown photomixotrophically (BG-11 plus 5 mM glucose) and photoautotrophically (BG-11 without glucose) at a continuous light intensity of 50μ photons m^−2s^−1 at 30° C. with shaking 125 rpm. The cultures were further treated with 0, 10, or 25 μM Doruquinone (DQ), 2,6-dimethly-1,4-benzoquinone (DMBQ), 2,6-dimethoxy-1,4-benzoquinone (DMOBQ), 2,6-dichloro-1,4-benzoquinone (DCBQ), or 2-chloro-1,4-benzoquinone (CBQ), each with […] ethanol.

[2] = system: Arabidopsis; test: Growth of Arabidopsis plants on MS medium containing the compound; type: in vivo, Arabidopsis thaliana (Col-0); conditions: 1% sucrose, 10-100 μM, applied at 2 to 50 times lower concentrations than standard herbicides such as DCMU or glyphosate
Experimental: as §1
Ten day-old Arabidopsis plants (Col-0) were grown on MS medium containing 1% sucrose (w/v), 0.095% EtOH, and 0, 10, 25, 50 or 100 μM methyl-plastoquinone analogues in 12-h days (photon flux of 110 μmol m^−2s^−1) at 22° C.

[3] = system: Synechocystis; test: Accumulation of methyl-plastoquinone-9 in COQ5-expressing Synechocystis DPhQ-MT knockout cells; type: cell-based, Synechocystis sp. PCC 6803; conditions: especially when cultured photoautotrophically; clones evolve suppressor mutations in COQ5
Text: For expression in Synechocystis, gene sll1653 and N-terminally truncated versions of At5g57300 (S23→M23) and At1g23360 (V28→M28) cDNAs were PCR amplified using primers that contained the NdeI(5′) and BglII(3′) restriction sites. PCR fragments were cloned into NdeI/BglII-digested pSynExp-2 expression vector (Sattler S E et al. “Characterization of tocopherol cyclases from higher plants and cyanobacteria. Evolutionary implications for tocopherol synthesis and function.” Plant Physiol. 132, 2184-2195 (2003)), and the resulting constructs were introduced into Synechocystis Δsll1653::aadA knockout cells (Lohmann A et al. 2006). Transformed cells were selected on BG-11 plates containing and chloramphenicol ([…]), and spectinomycin (15 μg/ml) at 22° C. in 12-hour days (70 μE m^−2s^−1). […] Induction and analyses of chlorophyll fluorescence were performed on one month-old dark-adapted plants using a FluorCam 800 MF imaging system (Photon Systems Instruments).
To further investigate why clade 2 C-methyltransferases evolved strict substrate preference, the effect of replacing cognate cyanobacterial and plastid-targeted DPhQ-MT with a bifunctional COQ5 counterpart was examined. […] These constructs were then introduced into a Synechocystis DPhQ-MT knockout strain and the growth of individual clones was scored via serial dilution assays (FIG. 3 A-B).

[4] = system: Arabidopsis; test: Accumulation of methyl-plastoquinone-9 in dexamethasone-induced plastid-targeted COQ5 Arabidopsis transgenics; type: in vivo, Arabidopsis thaliana; conditions: transgenics are seedling lethal

CC1=C(C)C(=O)C(C)=C(C)C1=O [duroquinone]
growth inhibition of Synechocystis sp. PCC6803 cells ([1]; 10 microM): complete growth inhibition | growth inhibition of Synechocystis sp. PCC6803 cells ([1]; 25 microM): complete growth inhibition | toxicity in Arabidopsis [2]: marked toxicity

O=C1C=CC(=O)C(Cl)=C1 [2-chloro-1,4-benzoquinone]
growth inhibition of Synechocystis sp. PCC6803 cells ([1]; 10 microM): complete growth inhibition | growth inhibition of Synechocystis sp. PCC6803 cells ([1]; 25 microM): complete growth inhibition | inhibitory activity on growth of Synechocystis sp. PCC6803 cells (overall grade) [1]: as effective as duroquinone

O=C1C=C(Cl)C(=O)C(Cl)=C1 [2,6-dichloro-1,4-benzoquinone]
inhibitory activity on growth of Synechocystis sp. PCC6803 cells (overall grade) [1]: low to marginal inhibitory activity

CC1=CC(=O)C=C(C)C1=O [2,6-dimethyl-1,4-benzoquinone]
growth inhibition of Synechocystis sp. PCC6803 cells ([1]; 25 microM): complete growth inhibition | inhibitory activity on growth of Synechocystis sp. PCC6803 cells (overall grade) [1]: intermediate inhibitory activity

CC(C)=CCCC(C)=CCCC(C)=CCCC(C)=CCCC(C)=CCCC(C)=CCCC(C)=CCCC(C)=CCC/C(C)=C/CC1=C(C)C(=O)C(C)=C(C)C1=O [methyl-plastoquinone-9]
toxicity of accumulation in Synechocystis COQ5 transformants [3]: acutely toxic | toxicity of accumulation in Arabidopsis COQ5 transgenics [4]: acutely toxic

COC1=CC(=O)C=C(OC)C1=O [2,6-dimethoxy-1,4-benzoquinone]
inhibitory activity on growth of Synechocystis sp. PCC6803 cells (overall grade) [1]: low to marginal inhibitory activity
